Assay results: patent publication US20250270238A1, “A NEW BIFUNCTIONAL LINCHPIN THAT REACTS SELECTIVELY WITH CYSTEINE RESIDUES TO INVOKE CYCLIZATION WHILE CONCURRENTLY INTRODUCING A DOTAGA MOIETY FOR RADIOMETAL CHELATION” (The Governors of the University of Alberta, priority 2022, published 2025)
pIC50: −log10 of the molar value.

Target: recombinant human SSTR3 (Homo sapiens, UniProt P32745)
Experiment: [125I]SST14 radioligand binding competition, filtration-based
From the text: This was accomplished using filtration-based assays against the radiolabeled peptide ^[125I]SST14. The reference compound used was the peptide SST28.
SiFALP was also used to cyclize octreotide in a model reaction (Scheme 6).

Sequence of recombinant human SSTR3 (P32745 whole entry): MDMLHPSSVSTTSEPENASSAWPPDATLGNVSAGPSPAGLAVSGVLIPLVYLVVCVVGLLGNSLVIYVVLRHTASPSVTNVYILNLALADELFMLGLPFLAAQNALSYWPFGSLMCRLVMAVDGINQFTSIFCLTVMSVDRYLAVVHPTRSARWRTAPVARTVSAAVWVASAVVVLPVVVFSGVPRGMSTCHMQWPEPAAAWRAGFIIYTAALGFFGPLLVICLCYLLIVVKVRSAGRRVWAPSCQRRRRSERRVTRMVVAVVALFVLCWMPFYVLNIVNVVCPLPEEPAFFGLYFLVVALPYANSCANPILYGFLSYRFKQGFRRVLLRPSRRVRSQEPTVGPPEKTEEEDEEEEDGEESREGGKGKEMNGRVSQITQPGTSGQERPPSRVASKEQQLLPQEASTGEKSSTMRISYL

C[C@@H](O)[C@@H]1NC(=O)[C@H](CCCCN)NC(=O)[C@@H](Cc2c[nH]c3ccccc23)NC(=O)[C@H](Cc2ccccc2)NC(=O)[C@@H](NC(=O)[C@H](N)Cc2ccccc2)CSC2=C(SC[C@@H](C(=O)N[C@H](CO)[C@@H](C)O)NC1=O)C(=O)N(Cc1cn(Cc3ccc([Si](F)(C(C)(C)C)C(C)(C)C)cc3)nn1)C2=O [Octreo-SiFA]
pIC50: 6.68
